Reference: patent US6649702B1, “Stabilization and acoustic activation of polymeric micelles for drug delivery” (University of Utah Research Foundation, priority 1999, dated 2003)
Values joined by “and” are separate entries in the source; they are usually repeats but may differ in a detail not shown here. Equal entries are not always repeated.

Experiments:
[1] = Ultrasound-triggered drug release from P-triblock P-105 micelles, real-time fluorescence detection; format: physicochemical; details: for Drug release: 10% P-triblock P-105 micelles, 37° C.; for Drug release (mean and s.d.): 10% P-triblock
From the text: A custom ultrasonic exposure chamber with real-time fluorescence detection was used to measure acoustically-triggered drug release from P-triblock PLURONIC P-105 micelles under continuous wave (CW) or pulsed ultrasound in the frequency range of 20 kHz to 90 kHz. The measurements were based on the decrease in fluorescence intensity when drug was transferred from the micelle core to the aqueous environment. Two fluorescent drugs were used: doxorubicin (DOX) and its paramagnetic analogue, ruboxyl (Rb). P-triblock PLURONIC P-105 at various concentrations in aqueous solutions was used as a micelle-forming polymer. Drug release was highest at 20 kHz ultrasound and dropped with increasing ultrasonic frequency despite much higher power densities. […] The release of DOX was higher than that of Rb due to stronger interaction and deeper insertion of Rb into the core of the micelles. Drug release was higher at lower P-triblock concentrations, which presumably results from higher local drug concentrations in the core of P-triblock micelles when the number of micelles is low. At constant frequency, drug release increased with increasing power density. At constant power density and for pulse duration longer than 0.1 s, peak release under pulsed ultrasound was the same as stationary release under CW ultrasound.
Fluorescence of the drug was excited at an excitation wavelength of 488 nm with an optical power of approximately 0.5 mW in a 2 mm diameter beam. At this light intensity no photobleaching was observed, based on the constant level of drug fluorescence during continuing irradiation for 8 hours. The drug release was quantified by measuring the changes in fluorescence emissions before, during, and after the ultrasound exposure. A fiberoptic probe (a sheathed bundle of multimode glass fibers, 3 mm entrance diameter, 0.6 numerical aperture, and 90 cm in length) was used to collect the fluorescence emission. The light passed through a dielectric bandpass filter with a 35 nm bandwidth centered at 535 nm (Omega Optical Model 535DF35) to a sensitive silicon detector (EG&G Model 450-1). The filter effectively cuts off emissions below 500 nm, including any Rayleigh-scattered laser light. The detector signal was digitized using a 12-bit AID converter (National Instruments) and sent, along with the digitized monitor photodetector signal, to a Macintosh computer for storage and processing. The analog outputs of both photodetectors were also plotted on a stripchart recorder. The temperature of the ultrasonic exposure chamber was maintained at 37° C. by circulating thermostated water throughout the sonicating bath.
The experimental procedure is described below. First, fluorescence intensity of drug in phosphate buffered saline, PBS (FPBS) was measured; then, without any changes in the experimental setup, the PBS solution was carefully removed and replaced with the drug solution in P-triblock micelles. […] The base fluorescence of the micellar solution (Fmic) was measured, after which CW or pulsed ultrasound was turned on. During the “ultrasound on” phase, fluorescence dropped as shown in FIG. 19 due to drug release from the hydrophobic core of micelles into the aqueous environment.
Digitized data were analyzed, to calculate the percentage of drug release from micelles. To reduce the noise, the data were Fourier transformed, and a small magnitude narrow band noise of unknown origin and its next three harmonics were filtered out. After Fourier filtering, the data were smoothed using a 10 point moving average. An example of the raw and filtered data is presented in FIG. 19 for DOX release from 10% P-triblock micelles.
The percent of drug release was calculated assuming that Fmic-FPBS corresponds to 100% drug release:
Release (%)=[(Fmic−Fus)/(Fmic−FPBS)]×100% (1)
where Fus is fluorescence during exposure to ultrasound. […]

[2] = tested on: blood proteins (albumin, fibrinogen); details: reported elsewhere [82]; cited from earlier work
[3] = Rb localization in P-triblock micelles and P-gel nanoparticles (EPR and fluorescence); format: physicochemical
Procedure: A dry powder of the EPR probe (16-DS) was incubated with unstabilized or stabilized micellar solutions of P-triblock for 15 mm under constant shaking. Unsolubilized probe was removed by centrifugation. The concentration of a solubilized probe was measured by the EPR. The same technique of probe introduction was used for pyrene. Water solubility of 16-DS or pyrene is very low and can be neglected. Dissolved probes are associated with P-triblock molecules and thus reflect the loading capacity, dynamics and environment of the latter. For a fluorescent drug, Rb, the same concentration of Rb (20 μg/ml) was introduced into non-stabilized and stabilized micellar P-triblock solutions at 37° C. from a stock solution. Because fluorescence of Rb within P-triblock micelles is much higher than outside micelles, the fraction of the drug within micelles can be estimated as
where Fmes is a measured fluorescence intensity, Fm is Rb fluorescence intensity when all the drug is localized in the hydrophobic core of micelles (measured in a 20% P-triblock solution at 37° C.), Fs is fluorescence intensity in non-micellar solutions (i.e., in PBS), and am is the fraction of the drug located in the hydrophobic core of micelles.
Rb was used as a spin- and fluorescent probe to monitor drug distribution in P-triblock micelles and P-gel nanoparticles.
The anthraquinone part of Rb molecule is inherently fluorescent. Rb fluorescence is quenched in collisions with water molecules; when Rb molecules are screened from collisions with water, theft fluorescence increases manifold.

| Drug release ([1]; 20 kHz, 0.033 W/cm^2) | Drug release ([1]; 20 kHz, 0.047 W/cm^2) | Drug release ([1]; 20 kHz, 0.058 W/cm^2) | Drug release ([1]; 67 kHz, 0.15 W/cm^2) | Drug release ([1]; 67 kHz, CW, 1.35 W/cm^2) | Drug release ([1]; 67 kHz, CW, 1.66 W/cm^2) | Drug release ([1]; 67 kHz, CW, 2.8 W/cm^2) | Drug release (mean and s.d.) ([1]; drug concentration 30 μg/ml, 67 kHz, 2.8 W/cm^2) | Drug release (mean and s.d.) ([1]; drug concentration 40 μg/ml, 67 kHz, 2.8 W/cm^2) | Drug Release from P-triblock Micelles ([1]; 20 kHz, 0.021 W/cm^2) | Drug Release from P-triblock Micelles ([1]; 90 kHz, 1.66 W/cm^2) | overall fraction of the drug in the cores of P-gel nanoparticle ([3]; EPR, P-gel heated to 37° C.) | fraction of rotationally restricted molecules ([3]; EPR, room temperature, 10% P-triblock solution without a hydrogel) | fraction of rotationally restricted molecules ([3]; EPR, room temperature, 10% P-triblock/1% poly(NiPAAm) P-gel nanoparticles) | fraction of Rb molecules localized in the hydrophobic environment of micelle cores ([3]; fluorescence, room temperature, 10% P-triblock solutions) | Structure (SMILES) | adsorption or binding to blood proteins (albumin, fibrinogen) [2] |
| --- | --- | --- | --- | --- | --- | --- | --- | --- | --- | --- | --- | --- | --- | --- | --- | --- |
| 4.6 ± 0.5% | 6.5 ± 1.1% | 9.2 ± 0.56% | 0% | 5.4 ± 2.3% | 8.1 ± 2.1% | 10.7 ± 0.8% | 5.5%±1% | 10%±1% |  |  |  |  |  |  | COc1cccc2c1C(=O)c1c(O)c3c(c(O)c1C2=O)C[C@@](O)(C(=O)CO)C[C@@H]3O[C@H]1C[C@H](N)[C@H](O)[C@H](C)O1 [DOX, doxorubicin] |  |
|  |  |  |  | 0.8 ± 0.25% | 3.2 ± 0.9% | 5.5% and 5.5 ± 1.5% |  |  | Traces | traces | 73% | 71% | 78% | about 70% | COc1cccc2c1C(=O)c1c(O)c3c(c(O)c1C2=O)C[C@@](O)(/C(C)=N/N=C1CC(C)(C)N(O)C(C)(C)C1)C[C@@H]3O[C@H]1C[C@H](N)[C@H](O)[C@H](C)O1.Cl [Rb, Ruboxyl] | negligible |
